Converted amounts (≈) assume the structure as drawn. Where two headings read alike, the source gives them in different places.
Legend:
[1] = test system: E. coli B119; assay: MIC, broth microdilution (EUCAST); format: cell-based, Escherichia coli; settings: B119, inoculum 10^5 CFU/mL
Method: (§1) The MICs of Pep16 and colistin were determined by the broth microdilution method in accordance with the EUCAST guidelines (www.eucast.org, accessed on 2 September 2022). In order to investigate for the presence of a potential inoculum effect in vitro, MICs were performed with various inoculum sizes, increasing from 10^5 to 10^7 CFU/mL. To explore MIC variations in the presence of albumin, MICs were also determined in Mueller–Hinton broth (MHB) supplemented with 4% human albumin.

[2] = test system: E. coli CFT073-pTOPO-COLR; assay: MIC, broth microdilution (EUCAST); format: cell-based, Escherichia coli
Method: as §1

[3] = test system: E. coli CFT073-pTOPO; assay: MIC, broth microdilution (EUCAST); format: cell-based, Escherichia coli; settings: at least three experiments
Method: as §1

[4] = test system: E. coli Af31; assay: MIC, broth microdilution (EUCAST); format: cell-based, Escherichia coli
Method: as §1

[5] = test system: E. coli CFT073-pTOPO; format: in vivo, mice; settings: peritonitis due to CFT073-pTOPO; for mean bacterial counts in the spleen / mice that died before the planned time of the sacrifice: single s.c. dose 2 h after inoculation: Pep16 10 mg/kg, colistin 10 mg/kg, cefotaxime 100 mg/kg, or colistin 10 + Pep16 10 mg/kg; for mice that died before the planned time of the sacrifice: planned sacrifice 3, 6, 12 h
Method: (§2) Animal experiments were performed in accordance with the prevailing regulations and ethical requirements of the Direction of Veterinary Services of Paris. The experimental protocol was approved by the French Ministry of Research and by the Ethics Committee for Animal Experiments (No. APAFIS 22330-2019092415325730). Animals were housed in regulation cages and given free access to food and water. Swiss ICR-strain female mice weighing 25 to 30 g were used.
We used the lethal murine intraperitoneal infection model previously developed by our group. Mice were inoculated by the intraperitoneal route with 250 μL of a bacterial suspension in porcine mucin 10% (Sigma–Aldrich), corresponding to a final inoculum of approximately 2.5 × 10^7 CFU/mL. The strains tested were CFT073-pTOPO and CFT073-pTOPO-COLR. Two hours after inoculation, at least three mice per strain were sacrificed to determine the pre-therapeutic bacterial loads, referred to as start-of-treatment controls, since all untreated mice died within 12 h (data not shown), preventing the use of end-of-treatment controls. Each treatment group was composed of 9 mice, which were administered a single dose of antibiotic (or of a combination of antibiotics) subcutaneously 2 h after inoculation. The treatment groups were Pep16 10 mg/kg, colistin 10 mg/kg, cefotaxime 100 mg/kg, and Pep16 10 mg/kg + colistin 10 mg/kg. Doses of cefotaxime and colistin were chosen based on previous pharmacokinetic analysis, while the dose of Pep16 was chosen based on the present survival study and pharmacokinetic analysis. In each treatment group, mice were sacrificed by 200 µL of pentobarbital 40% (Euthasol VetVR, Dechra Veterinary Products, Montigny-Le-Bretonneux, France) in a sequential way: 3 mice 3 h after treatment, 3 mice 6 h after treatment, and 3 mice 12 h after treatment. Immediately after death, the spleens were extracted and homogenized. Samples were plated on LB agar. To detect resistant mutants after treatment with colistin, samples were also plated on LB agar containing colistin at 4× MIC. The MICs of colistin-resistant mutants were determined (see above). Colony counts were then determined after 48 h of culture. Endpoints were spontaneous death (before the planned time of the sacrifice), bacterial counts in the spleen, and the emergence of colistin-resistant mutants. The assessment criteria of the murine model were: (i) mortality rate; (ii) bacterial counts in peritoneal fluid (PF) and the spleen; and (iii) the selection of colistin-resistant mutants after 24 h of treatment.

[6] = test system: E. coli CFT073-pTOPO-COLR; assay: Murine peritoneal infection model; format: in vivo, mice; settings: peritonitis due to CFT073-pTOPO-COLR; single s.c. dose: Pep16 10 mg/kg, colistin 10 mg/kg, or colistin 10 + Pep16 10 mg/kg
Method: as §2
We used the lethal murine intraperitoneal infection model previously developed by our group. Mice were inoculated by the intraperitoneal route with 250 μL of a bacterial suspension in porcine mucin 10% (Sigma–Aldrich), corresponding to a final inoculum of approximately 2.5 × 10^7 CFU/mL. The strains tested were CFT073-pTOPO and CFT073-pTOPO-COLR. Two hours after inoculation, at least three mice per strain were sacrificed to determine the pre-therapeutic bacterial loads, referred to as start-of-treatment controls, since all untreated mice died within 12 h (data not shown), preventing the use of end-of-treatment controls. Each treatment group was composed of 9 mice, which were administered a single dose of antibiotic (or of a combination of antibiotics) subcutaneously 2 h after inoculation. […] The MICs of colistin-resistant mutants were determined (see above). Colony counts were then determined after 48 h of culture. […]

[7] = test system: E. coli CFT073-pTOPO; assay: Flow cytometry study of membrane permeability (Live/Dead BacLight, SYTO9/PI); format: cell-based, Escherichia coli; settings: 30 min exposure, 10^6 CFU/mL; colistin 0.25 mg/L (0.25x MIC), Pep16 16 mg/L (0.25x MIC), alone or combined; positive control 90% ethanol; D/M = Q3/(Q1+Q2+Q3)
Method: Flow cytometry was used to investigate membrane permeability after exposure to antibiotics. Experiments were executed on a Fortessa X-20 flow cytometer (Becton Dickinson, Le Pont de Claix, France) equipped with a 488 nm laser. Exponentially growing E. coli CFT073-pTOPO cells at 10^6 CFU/mL were obtained and incubated with colistin and/or Pep16 at 0.25× MIC during 30 min. […] The samples were centrifuged and reconstituted in phosphate-buffered saline twice. Cells were then stained by using a Live/Dead BacLight kit (Molecular Probes, Invitrogen, Cergy-Pontoise, France) as previously shown [20]. The kit consists of two fluorescent intercalating agents, propidium iodide (PI) and SYTO9, which both stain nucleic acids. The green-fluorescing SYTO9 is able to enter all cells when used alone, whereas the red-fluorescing PI only enters cells with damaged cytoplasmic membranes. The appropriate mixture of the SYTO9 and PI stains enables differentiation between bacteria with intact cytoplasmic membranes and dead bacteria with permeabilized cytoplasmic membranes. Optical filters were set up such that red fluorescence was measured at 635 nm and green fluorescence was measured at 500 nm. The proportion of dead cells (colored in red)/marked cells (colored in red and/or green) was retrieved for each condition. A minimum of 50,000 events per condition were recorded.

[8] = test system: colistin-resistant mutants of E. coli CFT073-pTOPO and B119; assay: MIC for colistin-resistant mutants selected in time-kill curves; format: cell-based, Escherichia coli; settings: mutants after 24 h of exposure to colistin alone in time-kill curves
Method: as §1
Time–kill curves were performed with Pep16 (4–128 mg/L) and colistin (0.5–8 mg/L) alone or in combination. Exponentially growing E. coli cells were incubated in 10 mL of Mueller–Hinton broth to obtain 10^6 CFU/mL with Pep16 and/or colistin. Viable counts were enumerated by plating 100 μL of appropriate culture dilutions on to lysogeny broth (LB) agar plates after 0, 1, 3, 6, and 24 h of incubation at 37 °C and expressed in log10 CFU/mL. The lower limit of detection was 1 log10 CFU/mL. A bactericidal effect is defined as a 3 log10 decrease in CFU counts compared with the initial inoculum. A synergistic effect is defined as a 2 log10 decrease in CFU counts between the combination and its most-active constituent after 24 h. […] The MICs of colistin-resistant mutants after 24 h of colistin monotherapy were determined (see above). […]

CO/N=C(\C(=O)N[C@@H]1C(=O)N2C(C(=O)O)=C(COC(C)=O)CS[C@H]12)c1csc(N)n1 [Cefotaxime, cefotaxime]
MIC ([1]; Escherichia coli, read-out: MIC): 0.06 µg/mL (≈ 0.132 µM) | MIC ([2]; Escherichia coli): 0.06 µg/mL (≈ 0.132 µM) | MIC ([3]; Escherichia coli, CFT073PTOPO, inoculum 10^5 CFU/mL): 0.06 µg/mL (≈ 0.132 µM) | MIC ([3]; Escherichia coli, CFT073PTOPO, inoculum 10^6 CFU/mL): 1 µg/mL (≈ 2.2 µM) | MIC ([3]; Escherichia coli, CFT073PTOPO, inoculum 10^7 CFU/mL): 8 µg/mL (≈ 17.6 µM) | MIC ([4]; Escherichia coli, AF31): 0.06 µg/mL (≈ 0.132 µM) | mean bacterial counts in the spleen [5]: 3.6 × 10^6 CFU/g | mice that died before the planned time of the sacrifice [5]: 0/9

colistin sulfate
mean bacterial counts in the spleen [6]: 4.0 × 10^8 CFU/g | mice that died before the planned time of the sacrifice [6]: 5/9 | MIC [1]: 1 µg/mL | MIC ([2]; CFT073-pTOPO-COLR, inoculum 10^5 CFU/mL): 16 µg/mL | MIC ([3]; inoculum 10^5 CFU/mL): 1 µg/mL | MIC ([3]; inoculum 10^6 CFU/mL): 2 µg/mL | MIC ([3]; inoculum 10^7 CFU/mL): 32 µg/mL | MIC ([4]; Af31 (mcr-1 plasmid), inoculum 10^5 CFU/mL): 8 µg/mL | percentage of dead cells/marked cells (D/M) [7]: 60% | MIC of colistin-resistant mutants [8]: 8 to 16 µg/mL | proportion of mice with colistin-resistant mutants ([5]; colistin 10 mg/kg alone or with Pep16 10 mg/kg): 9/9 | mean counts of colistin-resistant mutants in the spleens ([5]; colistin 10 mg/kg alone or with Pep16 10 mg/kg, LB agar with colistin at 4x MIC): 1.6 × 10^3 CFU/g | mean bacterial counts in the spleen [5]: 2.7 × 10^8 CFU/g | mice that died before the planned time of the sacrifice [5]: 1/9

— PMC9854584, “Synergistic Activity of Pep16, a Promising New Antibacterial Pseudopeptide against Multidrug-Resistant Organisms, in Combination with Colistin against Multidrug-Resistant Escherichia coli, In Vitro and in a Murine Peritonitis Model” (Antibiotics, 2023)
